Measured values reported in patent US7834019B2, “Substituted pyrazolo[3,4-d]pyrimidinone derivatives” (Banyu Pharmaceutical Co., Ltd., priority 2006, dated 2010).
pEC50: −log10 of the molar value.

Columns and labels:
[1] = tested on: Human colon cancer cells WiDr; assay: Tumor growth-inhibitory effect, WiDr tumor implanted subcutaneously in nude rats; format: in vivo, F344/N Jcl-mu nude rats; conditions: compound alone 0.75 mg/kg/hr, continuous intravenous injection for 8 hours
Procedure: Pharmaceutical Test 4 (Tumor Growth-Inhibitory Effect)
Human colon cancer cells WiDr (gotten from ATCC) were implanted into the subcutaneous area of the back of F344/N Jcl-mu nude rats. Eight days after the implantation, gemcitabine (50 mg/kg, Gemzar injection, Eli-Lilly) was intravenously administered to them; and after 24 hours, a test compound was dissolved in a solvent (5% glucose) and given to them through continuous intravenous injection for 8 hours. The tumor volume (0.5×(major diameter)×(minor diameter)^2) was determined on day 0, 3, 6, 10 and 13. Day 0 means the day on which gemcitabine was administered. The relative tumor volume is a relative value, as calculated on the basis of the tumor volume of 1 on day 0. The tumor growth percentage (% T/C) was obtained according to the following formula:
When the tumor volume change from day 0 in the group subjected to test compound administration is more than 0 (>0): % T/C=[(tumor volume change in the test compounds on day 3, 6, 10, 13)/(tumor volume change in the control on day 3, 6, 10, 13)]×100. When the tumor volume change from day 0 in the group subjected to test compound administration is less than 0 (<0): % T/C=[(tumor volume change in the test compounds on day 3, 6, 10, 13)/(tumor volume […])]×100.

[2] = tested on: Cdc2 (Cdk1) tyrosine 15-phosphorylation; assay: Cdc2 (Cdk1) tyrosine 15-phosphorylation-inhibitory effect in WiDr cells + gemcitabine (ELISA); format: cell-based; conditions: Homo sapiens, gemcitabine 100 nM for 24 hours, then test compound with nocodazole for 8 hours, read-out: Cdc2-Y15 Phosphorylation-Inhibitory Effect (WiDr, + gemcitabine) (EC50)
Excerpt: Pharmaceutical Text 2 (Method of Determining Drug Potency in Cells (Cdc2 (Cdk1) Tyrosine 15-Phosphorylation-Inhibitory Effect))
Fetal bovine serum (FBS) was obtained from Morgate; media RPMI1640 and DMEM were from Invitrogen; camptothecin was from Sigma; gemcitabine was from Nippon Eli Lilly; nocodazole and protease inhibitor cocktail were from Sigma; rabbit anti-Cdc2 antibody and mouse anti-Cdc2 antibody were from Santa Cruz Biotechnology; rabbit anti-tyrosine 15-phosphorylated Cdc2 antibody and horseradish peroxidase-labeled anti-mouse IgG antibody were from Cell Signaling Technology; sure blue reserve TMB peroxidase substrate was from Kirkegaard and Perry Laboratories. […]
In the method of using WiDr cells, the cells were suspended in DMEM containing 10% FBS, and the cell suspension was applied to a 96-well Nunclondelta-processed plastic plate in an amount of 2000 cells/100 μL/well, in which the cells were incubated overnight in 5% CO2-95% air at 37° C. […] Cdc2 was determined through ELISA as follows: A rabbit anti-Cdc2 antibody solution, which had been diluted 200-fold with 50 mM carbonate-bicarbonate buffer (pH 9.6), was applied to a 96-well maxisorp plastic plate in an amount of 50 μL/well, and statically kept overnight at 4° C. so as to fix the antibody on the plate. […]

Q: How did the “% T/C day 3” value ([1]; day 3) turn out when `C=CCn1c(=O)c2cnc(Nc3ccc(N4CCN(C)CC4)cc3)nc2n1-c1cccc(C(C)(C)O)n1` [Example 53, 2-allyl-1-[6-(1-hydroxy-1-methylethyl)pyridin-2-yl]-6-{[4-(4-methylpiperazin-1-yl)phenyl]amino}-1,2-dihydro-3H-pyrazolo[3,4-d]pyrimidin-3-one] was run?
A: Its value is 86%.

Q: And the “% T/C day 6” value ([1]; day 6)?
A: The value was 74%.

Q: And the “% T/C day 10” value ([1]; day 10)?
A: Its value is 81%.

Q: And the “% T/C day 13” value ([1]; day 13)?
A: Its value is 89%.

Q: What about the pEC50 [2] of the same compound?
A: The pEC50 was 6.92.
